According to PMC6211260 (Journal of Enzyme Inhibition and Medicinal Chemistry, 2018):

Legend:
[1] = system: HT29 colon cancer cell line; test: NCI-60 single-dose screening; type: cell-based; settings: 10 µM
Description: (§1) Screening against the cancer cell lines was carried out at the National Cancer Institute (NCI, Bethesda, Maryland, USA) applying the standard protocol of the NCI[22].
(§2) The final target compounds were submitted to the National Cancer Institute (NCI), Maryland, USA[23]. Thirty-one compounds were selected to be tested over 60 cell lines at single dose 10 µM.

SR leukaemia cell line = test: NCI-60 single-dose screening; type: cell-based; settings: 10 µM
Description: as §1, §2

ABL1 (T315I) = target: T1, ABL1 (T315I) (Homo sapiens, UniProt P00519, T315I); test: In vitro kinase screening (Kinase HotSpot); type: biochemical; settings: single dose of 10 µM
T1 construct: purchased Reaction Biology Corp
Text: (§3) To investigate the biological target of compound, Reaction Biology Corp. Kinase HotSpotSM service was used adopting standard assay protocol.

BRAF = target: T2, BRAF (Homo sapiens, UniProt P15056); test: In vitro kinase screening (Kinase HotSpot); type: biochemical; settings: single dose of 10 µM
T2 construct: purchased Reaction Biology Corp
T2 sequence (P15056 whole entry): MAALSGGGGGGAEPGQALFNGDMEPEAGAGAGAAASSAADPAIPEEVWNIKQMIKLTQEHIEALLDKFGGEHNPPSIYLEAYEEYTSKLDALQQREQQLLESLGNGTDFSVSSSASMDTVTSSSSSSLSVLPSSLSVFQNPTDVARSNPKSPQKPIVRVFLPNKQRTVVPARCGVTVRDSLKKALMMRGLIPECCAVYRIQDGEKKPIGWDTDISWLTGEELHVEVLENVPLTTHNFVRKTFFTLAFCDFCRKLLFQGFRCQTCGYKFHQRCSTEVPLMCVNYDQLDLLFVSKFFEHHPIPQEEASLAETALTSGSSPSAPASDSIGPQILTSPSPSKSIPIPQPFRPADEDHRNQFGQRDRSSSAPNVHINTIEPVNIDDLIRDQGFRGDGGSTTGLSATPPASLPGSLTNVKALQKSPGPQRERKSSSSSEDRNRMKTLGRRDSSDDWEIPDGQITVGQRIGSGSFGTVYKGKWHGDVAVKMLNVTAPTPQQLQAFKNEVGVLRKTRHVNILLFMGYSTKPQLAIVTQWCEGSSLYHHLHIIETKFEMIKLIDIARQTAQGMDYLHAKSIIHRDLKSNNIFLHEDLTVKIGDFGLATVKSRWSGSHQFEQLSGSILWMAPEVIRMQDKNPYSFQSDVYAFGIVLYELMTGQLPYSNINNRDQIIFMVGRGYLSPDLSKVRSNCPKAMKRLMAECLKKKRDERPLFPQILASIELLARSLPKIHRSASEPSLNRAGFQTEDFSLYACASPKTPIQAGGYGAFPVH
Text: as §3

BRAF (V600E) = target: T3, BRAF (V600E) (Homo sapiens, UniProt P15056, V600E); test: In vitro kinase screening (Kinase HotSpot); type: biochemical; settings: single dose of 10 µM, BRAF (V599E) in Table 6, BRAF (V600E) in text
T3 construct: purchased Reaction Biology Corp
T3 sequence (P15056 whole entry V600E): as the sequence (P15056 whole entry) above, with V600E counted along it
Text: as §3

CDK2/cyclin E = target: T4, CDK2/cyclin E (Homo sapiens, UniProt P24941); test: In vitro kinase screening (Kinase HotSpot); type: biochemical; settings: single dose of 10 µM
T4 construct: purchased Reaction Biology Corp
Text: as §3

EGFR = target: T5, EGFR (Homo sapiens, UniProt P00533); test: In vitro kinase screening (Kinase HotSpot); type: biochemical; settings: single dose of 10 µM
T5 construct: purchased Reaction Biology Corp
Text: as §3

GSK3b = target: T6, GSK3b (Homo sapiens, UniProt P49841); test: In vitro kinase screening (Kinase HotSpot); type: biochemical; settings: single dose of 10 µM
T6 construct: purchased Reaction Biology Corp
Text: as §3

IKKb/IKBKB = target: T7, IKKb/IKBKB (Homo sapiens, UniProt O14920); test: In vitro kinase screening (Kinase HotSpot); type: biochemical; settings: single dose of 10 µM
T7 construct: purchased Reaction Biology Corp
T7 sequence (O14920 1-756): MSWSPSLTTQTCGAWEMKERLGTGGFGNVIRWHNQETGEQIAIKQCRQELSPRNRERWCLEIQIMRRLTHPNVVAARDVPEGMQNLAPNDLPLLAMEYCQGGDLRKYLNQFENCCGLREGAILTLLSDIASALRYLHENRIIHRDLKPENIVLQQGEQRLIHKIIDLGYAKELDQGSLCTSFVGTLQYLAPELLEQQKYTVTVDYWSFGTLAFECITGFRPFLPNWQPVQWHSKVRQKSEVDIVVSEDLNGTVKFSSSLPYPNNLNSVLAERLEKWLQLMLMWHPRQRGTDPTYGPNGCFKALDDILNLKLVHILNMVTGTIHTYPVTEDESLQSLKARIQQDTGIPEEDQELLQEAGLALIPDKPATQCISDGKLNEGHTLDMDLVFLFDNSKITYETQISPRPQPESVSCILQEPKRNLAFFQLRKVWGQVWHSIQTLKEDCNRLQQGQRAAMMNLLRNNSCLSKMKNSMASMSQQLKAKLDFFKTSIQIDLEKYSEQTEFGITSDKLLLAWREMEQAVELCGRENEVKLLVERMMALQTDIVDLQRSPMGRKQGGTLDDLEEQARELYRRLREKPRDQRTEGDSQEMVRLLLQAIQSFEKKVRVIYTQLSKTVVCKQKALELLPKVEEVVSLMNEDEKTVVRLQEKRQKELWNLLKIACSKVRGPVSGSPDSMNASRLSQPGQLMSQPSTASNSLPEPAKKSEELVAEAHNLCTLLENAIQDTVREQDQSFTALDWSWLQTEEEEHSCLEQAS
Text: as §3

JNK1 = target: T8, JNK1 (Homo sapiens, UniProt P45983); test: In vitro kinase screening (Kinase HotSpot); type: biochemical; settings: single dose of 10 µM
T8 construct: purchased Reaction Biology Corp
T8 sequence (P45983 whole entry): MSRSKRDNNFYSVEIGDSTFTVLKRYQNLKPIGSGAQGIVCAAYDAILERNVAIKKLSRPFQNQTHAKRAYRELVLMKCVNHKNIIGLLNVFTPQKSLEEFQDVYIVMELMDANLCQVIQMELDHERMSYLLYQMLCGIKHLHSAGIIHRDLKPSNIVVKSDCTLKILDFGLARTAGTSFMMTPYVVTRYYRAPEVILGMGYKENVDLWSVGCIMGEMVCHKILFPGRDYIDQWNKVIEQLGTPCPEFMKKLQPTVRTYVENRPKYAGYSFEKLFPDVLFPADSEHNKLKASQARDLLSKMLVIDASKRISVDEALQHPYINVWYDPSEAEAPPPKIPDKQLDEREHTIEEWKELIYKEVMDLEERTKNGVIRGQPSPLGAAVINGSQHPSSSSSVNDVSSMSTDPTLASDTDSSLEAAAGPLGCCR
Text: as §3

JNK2 = target: T9, JNK2 (Homo sapiens, UniProt P45984); test: In vitro kinase screening (Kinase HotSpot); type: biochemical; settings: single dose of 10 µM
T9 construct: purchased Reaction Biology Corp
T9 sequence (P45984 whole entry): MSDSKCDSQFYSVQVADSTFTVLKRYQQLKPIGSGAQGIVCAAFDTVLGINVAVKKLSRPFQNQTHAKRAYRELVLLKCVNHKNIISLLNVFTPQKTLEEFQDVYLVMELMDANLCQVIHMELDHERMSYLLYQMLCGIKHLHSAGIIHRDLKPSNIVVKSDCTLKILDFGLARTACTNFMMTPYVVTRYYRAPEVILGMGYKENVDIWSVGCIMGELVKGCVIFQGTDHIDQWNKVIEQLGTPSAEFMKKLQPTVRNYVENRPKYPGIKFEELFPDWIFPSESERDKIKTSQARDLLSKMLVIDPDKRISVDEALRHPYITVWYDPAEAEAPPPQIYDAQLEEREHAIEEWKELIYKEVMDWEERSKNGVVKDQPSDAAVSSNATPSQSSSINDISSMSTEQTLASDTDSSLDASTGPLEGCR
Text: as §3

JNK3 = target: T10, JNK3 (Homo sapiens, UniProt P53779); test: In vitro kinase screening (Kinase HotSpot); type: biochemical; settings: single dose of 10 µM
T10 construct: purchased Reaction Biology Corp
T10 sequence (P53779 whole entry): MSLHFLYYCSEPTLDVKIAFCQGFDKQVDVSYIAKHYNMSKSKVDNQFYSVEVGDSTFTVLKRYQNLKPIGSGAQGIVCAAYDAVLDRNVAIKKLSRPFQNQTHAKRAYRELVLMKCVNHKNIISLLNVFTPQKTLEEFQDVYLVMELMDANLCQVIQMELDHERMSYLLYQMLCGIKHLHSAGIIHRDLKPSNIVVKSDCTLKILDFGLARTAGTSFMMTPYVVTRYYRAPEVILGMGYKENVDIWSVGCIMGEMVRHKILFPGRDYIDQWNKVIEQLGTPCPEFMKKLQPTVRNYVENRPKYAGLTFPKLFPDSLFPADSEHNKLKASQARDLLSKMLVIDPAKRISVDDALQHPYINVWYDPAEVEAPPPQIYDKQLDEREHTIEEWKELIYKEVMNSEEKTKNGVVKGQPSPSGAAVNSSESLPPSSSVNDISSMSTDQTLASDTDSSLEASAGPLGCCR
Text: as §3

P38a/MAPK14 = target: T11, P38a/MAPK14 (Homo sapiens, UniProt Q16539); test: In vitro kinase screening (Kinase HotSpot); type: biochemical; settings: single dose of 10 µM, P38a/MAPK14
T11 construct: purchased Reaction Biology Corp
T11 sequence (Q16539 whole entry): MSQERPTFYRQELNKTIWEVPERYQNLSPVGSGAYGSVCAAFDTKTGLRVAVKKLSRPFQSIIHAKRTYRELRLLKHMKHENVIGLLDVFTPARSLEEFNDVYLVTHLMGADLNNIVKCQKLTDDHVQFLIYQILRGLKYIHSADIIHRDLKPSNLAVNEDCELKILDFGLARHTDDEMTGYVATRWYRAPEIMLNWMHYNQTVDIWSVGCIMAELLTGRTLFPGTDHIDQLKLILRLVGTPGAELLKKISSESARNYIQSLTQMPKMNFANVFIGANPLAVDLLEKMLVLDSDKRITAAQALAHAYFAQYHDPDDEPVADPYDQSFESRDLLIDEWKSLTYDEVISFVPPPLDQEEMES
Text: as §3

ROS/ROS1 = target: T12, ROS/ROS1 (Homo sapiens, UniProt P08922); test: In vitro kinase screening (Kinase HotSpot); type: biochemical; settings: single dose of 10 µM
T12 construct: purchased Reaction Biology Corp
T12 sequence (P08922 28-2347): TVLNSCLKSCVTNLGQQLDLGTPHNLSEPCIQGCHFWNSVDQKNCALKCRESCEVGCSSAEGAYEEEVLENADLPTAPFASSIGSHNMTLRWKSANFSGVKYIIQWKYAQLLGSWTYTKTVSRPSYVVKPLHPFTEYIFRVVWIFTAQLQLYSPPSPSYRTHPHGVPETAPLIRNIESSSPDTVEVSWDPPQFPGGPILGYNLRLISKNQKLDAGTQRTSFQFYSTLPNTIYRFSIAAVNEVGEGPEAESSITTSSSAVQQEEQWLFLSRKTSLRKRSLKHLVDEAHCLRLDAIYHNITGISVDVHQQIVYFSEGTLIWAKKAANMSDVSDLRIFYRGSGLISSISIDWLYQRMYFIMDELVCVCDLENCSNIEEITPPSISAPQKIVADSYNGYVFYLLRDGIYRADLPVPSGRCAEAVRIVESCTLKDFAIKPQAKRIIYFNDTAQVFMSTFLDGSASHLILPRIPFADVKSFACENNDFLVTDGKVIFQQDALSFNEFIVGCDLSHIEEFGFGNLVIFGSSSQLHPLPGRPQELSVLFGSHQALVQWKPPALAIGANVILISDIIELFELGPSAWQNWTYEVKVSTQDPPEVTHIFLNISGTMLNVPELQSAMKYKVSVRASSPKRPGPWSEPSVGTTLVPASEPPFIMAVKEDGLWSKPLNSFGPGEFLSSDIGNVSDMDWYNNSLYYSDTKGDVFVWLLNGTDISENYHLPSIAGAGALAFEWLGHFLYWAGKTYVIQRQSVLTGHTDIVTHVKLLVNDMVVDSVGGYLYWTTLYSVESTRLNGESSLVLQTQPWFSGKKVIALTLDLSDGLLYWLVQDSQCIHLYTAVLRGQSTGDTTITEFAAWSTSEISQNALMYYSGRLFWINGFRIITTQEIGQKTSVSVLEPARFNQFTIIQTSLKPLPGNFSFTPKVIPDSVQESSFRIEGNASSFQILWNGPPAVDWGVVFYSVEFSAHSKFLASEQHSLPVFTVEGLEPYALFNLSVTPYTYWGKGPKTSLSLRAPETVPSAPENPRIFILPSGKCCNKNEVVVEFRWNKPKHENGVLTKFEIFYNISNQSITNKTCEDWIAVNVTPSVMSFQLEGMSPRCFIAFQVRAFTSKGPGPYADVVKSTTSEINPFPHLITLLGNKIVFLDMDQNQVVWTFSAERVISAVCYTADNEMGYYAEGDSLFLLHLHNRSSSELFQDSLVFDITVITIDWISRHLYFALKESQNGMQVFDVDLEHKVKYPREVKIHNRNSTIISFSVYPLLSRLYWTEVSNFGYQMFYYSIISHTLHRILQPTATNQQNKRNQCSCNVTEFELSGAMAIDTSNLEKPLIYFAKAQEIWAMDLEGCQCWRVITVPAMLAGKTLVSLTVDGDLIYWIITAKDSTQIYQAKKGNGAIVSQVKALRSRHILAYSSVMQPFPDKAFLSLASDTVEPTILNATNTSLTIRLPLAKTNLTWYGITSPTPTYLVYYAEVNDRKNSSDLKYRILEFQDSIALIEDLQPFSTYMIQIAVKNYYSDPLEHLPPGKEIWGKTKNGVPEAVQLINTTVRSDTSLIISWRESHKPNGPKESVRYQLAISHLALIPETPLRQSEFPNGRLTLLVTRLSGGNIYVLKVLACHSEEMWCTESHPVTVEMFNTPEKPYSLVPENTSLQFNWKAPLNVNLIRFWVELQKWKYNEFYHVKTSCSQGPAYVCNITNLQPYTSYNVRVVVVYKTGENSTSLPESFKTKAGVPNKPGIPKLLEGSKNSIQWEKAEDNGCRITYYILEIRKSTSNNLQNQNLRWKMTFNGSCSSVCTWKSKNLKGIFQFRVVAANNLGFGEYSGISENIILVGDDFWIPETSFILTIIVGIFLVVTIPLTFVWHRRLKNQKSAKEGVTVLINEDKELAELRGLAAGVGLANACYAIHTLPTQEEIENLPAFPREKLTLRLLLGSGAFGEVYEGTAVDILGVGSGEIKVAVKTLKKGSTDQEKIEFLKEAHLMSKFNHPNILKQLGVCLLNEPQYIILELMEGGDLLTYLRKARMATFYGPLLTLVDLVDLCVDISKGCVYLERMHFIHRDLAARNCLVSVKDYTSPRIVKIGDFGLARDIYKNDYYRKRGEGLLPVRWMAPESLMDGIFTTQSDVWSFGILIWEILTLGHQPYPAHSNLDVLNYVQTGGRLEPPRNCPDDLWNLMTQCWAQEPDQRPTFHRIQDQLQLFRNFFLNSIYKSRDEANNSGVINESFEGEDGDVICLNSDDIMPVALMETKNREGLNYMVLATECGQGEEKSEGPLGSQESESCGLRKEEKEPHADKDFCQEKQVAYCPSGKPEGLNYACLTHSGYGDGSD
Text: as §3

NCI-60 cell line panel = test: NCI-60 single-dose (10 µM) antiproliferative screening, mean over panel; type: cell-based; settings: single-dose 10 µM
Description: as §1, §2

[2] = system: Colo 205 colon cancer cell line; test: NCI-60 single-dose screening; type: cell-based; settings: Homo sapiens, read-out: per cent inhibition
Description: as §1, §2

[3] = system: HCC-116 colon cancer cell line; test: NCI-60 single-dose screening; type: cell-based; settings: read-out: per cent inhibition
Description: as §1, §2

[4] = system: SF-295 CNS cancer cell line; test: NCI-60 single-dose screening; type: cell-based; settings: Homo sapiens, read-out: per cent inhibition
Description: as §1, §2

CNS cancer cell lines = test: NCI five-dose testing, subpanel mean; type: cell-based; settings: subpanel IV: CNS cancer
Description: as §1

Leukaemia cell lines = test: NCI five-dose testing, subpanel mean; type: cell-based; settings: subpanel I: Leukaemia
Description: as §1

breast cancer cell lines = test: NCI five-dose testing, subpanel mean; type: cell-based; settings: subpanel IX: breast cancer
Description: as §1

colon cancer cell lines = test: NCI five-dose testing, subpanel mean; type: cell-based; settings: subpanel III: colon cancer
Description: as §1

melanoma cell lines = test: NCI five-dose testing, subpanel mean; type: cell-based; settings: subpanel V: melanoma
Description: as §1

[5] = system: non-small cell lung cancer cell lines; test: NCI five-dose testing, subpanel mean; type: cell-based; settings: subpanel II: non-small cell lung cancer
Description: as §1

[6] = system: ovarian cancer cell lines; test: NCI five-dose testing, subpanel mean; type: cell-based; settings: subpanel VI: ovarian cancer
Description: as §1

[7] = system: prostate cancer cell lines; test: NCI five-dose testing, subpanel mean; type: cell-based; settings: subpanel VIII: prostate cancer
Description: as §1

renal cancer cell lines = test: NCI five-dose testing, subpanel mean; type: cell-based; settings: subpanel VII: renal cancer
Description: as §1

[8] = system: A498 renal cancer cell line; test: NCI five-dose testing; type: cell-based; settings: Homo sapiens
Description: as §1

[9] = system: HOP-92 non-small cell lung cancer cell line; test: NCI five-dose testing; type: cell-based; settings: Homo sapiens
Description: as §1

[10] = system: HT-29 colon cancer cell line; test: NCI five-dose testing; type: cell-based; settings: Homo sapiens
Description: as §1

[11] = system: K-562 leukaemia cell line; test: NCI five-dose testing; type: cell-based; settings: Homo sapiens
Description: as §1

[12] = system: MDA-MB-468 breast cancer cell line; test: NCI five-dose testing; type: cell-based; settings: Homo sapiens
Description: as §1

[13] = system: OVCAR-4 ovarian cancer cell line; test: NCI five-dose testing; type: cell-based; settings: Homo sapiens
Description: as §1

[14] = system: PC-3 prostate cancer cell line; test: NCI five-dose testing; type: cell-based; settings: Homo sapiens
Description: as §1

[15] = system: SK-MEL-5 melanoma cell line; test: NCI five-dose testing; type: cell-based; settings: Homo sapiens
Description: as §1

[16] = system: U251 CNS cancer cell line; test: NCI five-dose testing; type: cell-based; settings: Homo sapiens
Description: as §1

`COc1cccc(-c2nn(-c3ccccc3)cc2-c2ccnc(NCCCNS(=O)(=O)c3ccc(Cl)cc3)c2)c1` [Compound 2c, 4-Chloro-N-(3-((4-(3-(3-methoxyphenyl)-1-phenyl-1H-pyrazol-4-yl)pyridin-2-yl)amino)propyl) benzenesulfonamide] gave a per cent inhibition [1] of 88.66%, a per cent inhibition (SR leukaemia cell line) of 92.74% and an Inhibition % (ABL1 (T315I)) of 4.53 ± 0.45%. It also gave an Inhibition % (BRAF) of 20.87 ± 0.30%, an Inhibition % (BRAF (V600E)) of 44.20 ± 0.40% and an Inhibition % (CDK2/cyclin E) of 9.80 ± 1.01%. The Inhibition % (EGFR) was 9.20 ± 4.45%, the Inhibition % (GSK3b) was 49.31 ± 0.30% and the Inhibition % (IKKb/IKBKB) was 7.79 ± 0.15%. It also gave an Inhibition % (JNK1) of 69.19 ± 0.02%, an Inhibition % (JNK2) of 59.68 ± 0.01% and an Inhibition % (JNK3) of 24.23 ± 0.03%. The Inhibition % (P38a/MAPK14) was 65.73 ± 0.66% and the Inhibition % (ROS/ROS1) was 3.40 ± 0.39%.
`O=S(=O)(NCCCNc1cc(-c2cn(-c3ccccc3)nc2-c2cccc(O)c2)ccn1)c1ccc(Br)cc1` [Compound 2k, 4-Bromo-N-(3-((4-(3-(3-hydroxyphenyl)-1-phenyl-1H-pyrazol-4-yl)pyridin-2-yl)amino)propyl)benzenesulfonamide] was tested, and the inhibition at 10 µM (NCI-60 cell line panel; 60-cancer cell line screening) was 90.6%, the “number of cell lines with more than 100% inhibition” value (NCI-60 cell line panel; NCI-60 panel) was 13 and the inhibition at 10 µM [2] was 168%. For the same molecule, the inhibition at 10 µM [3] was 140%, the inhibition at 10 µM [4] was 147% and the IC50 (CNS cancer cell lines) was 1700 nM. The IC50 (Leukaemia cell lines) was 1550 nM, the IC50 (breast cancer cell lines) was 1110 nM and the IC50 (colon cancer cell lines) was 1480 nM. It also gave an IC50 (melanoma cell lines) of 1620 nM, an IC50 [5] of 1960 nM and an IC50 [6] of 2110 nM. For the same molecule, the IC50 [7] was 2030 nM, the IC50 (renal cancer cell lines) was 1890 nM and the IC50 ([8]; A498) was 380 nM. It also gave an LC50 (lethal concentration 50%) ([8]; A498, read-out: LD50 (lethal dose 50)) of 11900 nM, an IC (TGI) ([8]; A498, read-out: TGI (total growth inhibition concentration)) of 2800 nM and an IC50 ([9]; HOP-92) of 1830 nM. For the same molecule, the IC (TGI) ([9]; HOP-92, HOP-92, read-out: TGI (total growth inhibition concentration)) was 7500 nM, the LD50 (lethal dose 50) ([9]; HOP-92, read-out: LD50 (lethal dose 50)) was over 100 µM and the CC50 ([10]; HT-29, read-out: LD50 (lethal dose 50)) was 7100 nM. The IC50 ([10]; HT-29, read-out: IC50) was 630 nM, the IC (TGI) ([10]; HT-29, read-out: TGI (total growth inhibition concentration)) was 2300 nM and the CC50 ([11]; K562, read-out: LD50 (lethal dose 50)) was over 100000 nM. For the same molecule, the IC50 ([11]; K562, K-562) was 440 nM, the IC (TGI) ([11]; K562, K-562, read-out: TGI (total growth inhibition concentration)) was 2800 nM and the IC50 ([12]; MDA-MB-468) was 1540 nM. For the same molecule, the CC50 ([12]; MDA-MB-468, read-out: LD50 (lethal dose 50)) was over 100000 nM, the IC (TGI) ([12]; MDA-MB-468, read-out: TGI (total growth inhibition concentration)) was 5600 nM and the IC50 ([13]; OVCAR-4) was 1660 nM. It also gave an LC50 (lethal concentration 50) ([13]; OVCAR-4, read-out: LD50 (lethal dose 50)) of over 100000 nM, an IC (TGI) ([13]; OVCAR-4, read-out: TGI (total growth inhibition concentration)) of 8600 nM and an LC50 (lethal concentration 50) ([14]; PC-3, read-out: LD50 (lethal dose 50)) of over 100000 nM. It also gave an IC50 ([14]; PC-3, read-out: IC50) of 2110 nM, an IC (TGI) ([14]; PC-3, read-out: TGI (total growth inhibition concentration)) of 7800 nM and an IC50 ([15]; SK-MEL-5) of 1270 nM. The LC50 (lethal concentration 50) ([15]; SK-MEL-5, read-out: LD50 (lethal dose 50)) was 5300 nM, the IC (TGI) ([15]; SK-MEL-5, read-out: TGI (total growth inhibition concentration)) was 2600 nM and the CC50 ([16]; U-251, read-out: LD50 (lethal dose 50)) was 19900 nM. The IC50 ([16]; U-251, U251, read-out: IC50) was 1210 nM and the IC (TGI) ([16]; U-251, U251, read-out: TGI (total growth inhibition concentration)) was 4400 nM.
